Measured values reported in the NIST ThermoML archive (doi:10.1021/je049959i).
± gives the expanded uncertainty stated by the source.

Conditions: Liquid, Closed cell (Static) method

Compound: CCCC [butane]
- vapor or sublimation pressure (330.16 K): 592.44 ± 2.6 kPa

Compound: CCCO [propan-1-ol]
- vapor or sublimation pressure (318.58 K): 9.47 ± 0.17 kPa
- vapor or sublimation pressure (323.07 K): 12.07 ± 0.18 kPa
- vapor or sublimation pressure (323.26 K): 12.27 ± 0.18 kPa
- vapor or sublimation pressure (330.16 K): 17.57 ± 0.19 kPa
- vapor or sublimation pressure (331.92 K): 19.07 ± 0.18 kPa
- vapor or sublimation pressure (332.05 K): 19.17 ± 0.18 kPa

Compound: CC(C)C [2-methylpropane]
- vapor or sublimation pressure (318.59 K): 610.84 ± 2.1 kPa

Compound: C/C=C/C [(E)-2-butene]
- vapor or sublimation pressure (332.05 K): 606.54 ± 2.2 kPa

Compound: C/C=C\C [(Z)-2-butene]
- vapor or sublimation pressure (331.92 K): 561.34 ± 2.1 kPa

Compound: C=CCC [1-butene]
- vapor or sublimation pressure (323.27 K): 596.14 ± 2.1 kPa

Compound: C=C(C)C [2-methylpropene]
- vapor or sublimation pressure (323.07 K): 607.94 ± 2.1 kPa
